The target in assay [1] is GjCCD4a (Gardenia jasminoides, UniProt A0A288W8F9). Put plainly: in bacterio carotenoid cleavage, UPLC-DAD and LC-MS. Conditions: E. coli accumulating zeaxanthin; product crocetin dialdehyde.
The target of assay [2] is T1, GjUGT74F8 (Gardenia jasminoides, UniProt Z9ZI51R9R0).
T1 sequence (Z9ZI51R9R0 1-457): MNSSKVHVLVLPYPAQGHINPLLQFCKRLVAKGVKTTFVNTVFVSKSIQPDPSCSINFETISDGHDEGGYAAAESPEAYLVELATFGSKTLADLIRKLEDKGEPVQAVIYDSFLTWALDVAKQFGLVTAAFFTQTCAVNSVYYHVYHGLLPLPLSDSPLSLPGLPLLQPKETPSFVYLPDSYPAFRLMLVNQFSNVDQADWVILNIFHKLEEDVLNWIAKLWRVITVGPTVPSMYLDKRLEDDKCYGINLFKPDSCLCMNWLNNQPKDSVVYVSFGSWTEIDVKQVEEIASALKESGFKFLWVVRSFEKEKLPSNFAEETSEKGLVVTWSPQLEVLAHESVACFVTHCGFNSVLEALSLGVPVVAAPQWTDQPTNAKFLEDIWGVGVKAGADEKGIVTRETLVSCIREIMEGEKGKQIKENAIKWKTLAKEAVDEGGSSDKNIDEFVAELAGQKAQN
Put plainly: in vitro glucosylation, UPLC-DAD and LC-MS. The format is biochemical. The note with it: products crocin III and crocin V.

For assay [3], the target named is T2, GjUGT75L6 (Gardenia jasminoides, UniProt F8WKW0).
T2 construct: gene UGT75L6
T2 sequence (F8WKW0 whole entry): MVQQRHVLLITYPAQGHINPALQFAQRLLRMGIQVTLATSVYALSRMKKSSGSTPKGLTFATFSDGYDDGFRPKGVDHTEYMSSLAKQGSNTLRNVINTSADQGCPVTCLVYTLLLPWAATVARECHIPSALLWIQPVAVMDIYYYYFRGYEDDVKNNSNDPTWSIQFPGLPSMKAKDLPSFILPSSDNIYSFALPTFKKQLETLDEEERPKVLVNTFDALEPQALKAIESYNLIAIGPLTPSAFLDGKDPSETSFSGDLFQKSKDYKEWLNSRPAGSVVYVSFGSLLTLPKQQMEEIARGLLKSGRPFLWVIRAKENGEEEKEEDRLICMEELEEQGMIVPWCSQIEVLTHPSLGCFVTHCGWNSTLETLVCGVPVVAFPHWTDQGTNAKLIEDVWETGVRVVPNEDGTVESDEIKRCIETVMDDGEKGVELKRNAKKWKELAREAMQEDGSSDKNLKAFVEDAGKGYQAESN
The note with it: purification not stated in main text.

The target in assay [4] is T3, GjALDH2C3 (Gardenia jasminoides, UniProt A0A288W8F8).
T3 sequence (A0A288W8F8 1-503): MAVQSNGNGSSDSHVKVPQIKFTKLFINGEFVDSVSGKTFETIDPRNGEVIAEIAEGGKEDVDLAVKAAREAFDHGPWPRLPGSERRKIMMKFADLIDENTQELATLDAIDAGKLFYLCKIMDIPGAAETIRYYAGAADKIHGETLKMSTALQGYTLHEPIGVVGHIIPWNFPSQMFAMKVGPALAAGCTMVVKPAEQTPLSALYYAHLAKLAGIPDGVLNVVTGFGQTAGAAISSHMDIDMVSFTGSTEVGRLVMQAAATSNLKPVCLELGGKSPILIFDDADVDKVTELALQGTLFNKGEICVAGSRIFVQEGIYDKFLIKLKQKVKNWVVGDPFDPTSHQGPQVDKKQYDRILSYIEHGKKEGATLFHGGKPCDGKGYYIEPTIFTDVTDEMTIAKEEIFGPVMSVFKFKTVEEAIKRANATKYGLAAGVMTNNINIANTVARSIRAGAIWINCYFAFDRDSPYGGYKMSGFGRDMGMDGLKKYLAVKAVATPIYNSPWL
Description: in vitro oxidation, UPLC-DAD and LC-MS. The format is biochemical. The note with it: products crocetin and crocetin semialdehyde.

Assay [5] has as its target T1, GjUGT74F8. Put plainly: in vitro de-glucosylation, UPLC-DAD and LC-MS. The format is biochemical. The note with it: reversible; product crocin IV.
The target of assay [6] is T4, GjUGT94E13 (Gardenia jasminoides, UniProt A0A288W8G7).
T4 sequence (A0A288W8G7 1-446): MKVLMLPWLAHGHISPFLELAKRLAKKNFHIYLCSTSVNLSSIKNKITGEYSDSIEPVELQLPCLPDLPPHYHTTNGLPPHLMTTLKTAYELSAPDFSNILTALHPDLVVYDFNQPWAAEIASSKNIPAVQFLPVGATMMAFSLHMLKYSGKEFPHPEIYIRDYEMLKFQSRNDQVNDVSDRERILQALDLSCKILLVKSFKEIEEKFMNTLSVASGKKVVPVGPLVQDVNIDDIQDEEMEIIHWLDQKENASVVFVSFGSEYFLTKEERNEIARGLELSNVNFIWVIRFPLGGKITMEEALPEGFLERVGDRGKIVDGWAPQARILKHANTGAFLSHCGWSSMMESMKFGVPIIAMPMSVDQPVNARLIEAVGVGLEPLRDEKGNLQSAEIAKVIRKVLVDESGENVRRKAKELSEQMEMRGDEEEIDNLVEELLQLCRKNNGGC
Description: in vitro glucosylation, UPLC-DAD and LC-MS. The note with it: product crocin I. The format is biochemical.

Four compounds from paper PMC7302004, “Tandem gene duplications drive divergent evolution of caffeine and crocin biosynthetic pathways in plants” (BMC Biology, 2020) can be followed below.

GjCCD4a, sequence (A0A288W8F9 entry or part of it): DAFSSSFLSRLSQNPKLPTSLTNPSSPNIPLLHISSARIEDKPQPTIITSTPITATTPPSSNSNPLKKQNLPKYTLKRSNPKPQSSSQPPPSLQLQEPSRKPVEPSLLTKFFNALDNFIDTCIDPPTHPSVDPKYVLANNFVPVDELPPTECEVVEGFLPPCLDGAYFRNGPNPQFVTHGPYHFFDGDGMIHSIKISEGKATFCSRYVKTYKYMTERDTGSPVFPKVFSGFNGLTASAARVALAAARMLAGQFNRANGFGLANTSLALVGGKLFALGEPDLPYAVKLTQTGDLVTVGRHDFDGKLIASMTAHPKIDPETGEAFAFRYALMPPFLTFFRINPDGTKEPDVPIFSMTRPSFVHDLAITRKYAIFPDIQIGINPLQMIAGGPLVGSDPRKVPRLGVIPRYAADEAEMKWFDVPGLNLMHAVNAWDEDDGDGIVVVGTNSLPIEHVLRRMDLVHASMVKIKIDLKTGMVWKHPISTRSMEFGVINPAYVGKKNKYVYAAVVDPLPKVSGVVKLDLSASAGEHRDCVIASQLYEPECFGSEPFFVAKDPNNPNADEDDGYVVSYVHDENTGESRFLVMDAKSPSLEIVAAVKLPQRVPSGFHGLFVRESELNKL

On to `CC1=C(/C=C/C(C)=C/C=C/C(C)=C/C=C/C=C(C)/C=C/C=C(C)/C=C/C2=C(C)C[C@@H](O)CC2(C)C)C(C)(C)C[C@H](O)C1` [zeaxanthin], for which, in assay [1], the “in bacterio carotenoid cleavage, UPLC-DAD and LC-MS” value was “a new product with a retention time and characteristic fragment ions”.

As to `CC(/C=C/C=C(\C)C(=O)O)=C\C=C\C=C(C)\C=C\C=C(/C)C(=O)O` [crocetin], the “in vitro glucosylation, UPLC-DAD and LC-MS” value in assay [2] is “Upon in vitro incubation of GjUGT74F8 with crocetin, two new peaks”. In assay [3], the “in vitro glucosylation, UPLC” value is “GjUGT75L6, and GjUGT94E13, were able to glycosylate crocetin and/or crocins”.

Regarding `C\C(C=O)=C/C=C/C(C)=C/C=C/C=C(C)/C=C/C=C(\C)C=O` [crocetin dialdehyde], the “in vitro oxidation, UPLC-DAD and LC-MS” value in assay [4] is “Incubation of crocetin dialdehyde with GjALDH2C3 yielded two new peaks”.

Regarding `CC(/C=C/C=C(\C)C(=O)O[C@@H]1O[C@H](CO)[C@@H](O)[C@H](O)[C@H]1O)=C\C=C\C=C(C)\C=C\C=C(/C)C(=O)O[C@@H]1O[C@H](CO[C@@H]2O[C@H](CO)[C@@H](O)[C@H](O)[C@H]2O)[C@@H](O)[C@H](O)[C@H]1O` [crocin II], the “in vitro de-glucosylation, UPLC-DAD and LC-MS” value in assay [5] was “reversible conversion of crocin II to crocin IV and vice versa was observed”. Also, the “in vitro glucosylation, UPLC-DAD and LC-MS” value in assay [6] was “GjUGT94E13 could efficiently catalyze the glycosylation of crocins II and III to crocin I”.
